Entries after “also recorded” stand apart in the source; their conditions may differ.
What was measured:
[1] = test system: Bacillus stearothemophilus spores (ATCC 7953); test: Spore studies in lumens (wire biological indicators, resistometer); format: cell-based; settings: 5 min, 23° C., NO then air
Description: The ability of the nitrogen oxide gases to penetrate an inner open space or cavity within a tube (i.e., a lumen) and inactivate spores in the lumen is evaluated. The spores used are those that are most resistant to the nitrogen oxide gases.
The following configuration of lumens are tested:
(a) 17″ stainless (SS) tubes having a 2.5 mm inner diameter (I.D.), bent in “U” shape
(b) 60″ polyethylene (PE) tube having a 4.5 mm ID, coiled and in Tyvek pouch
(c) 60″ PE tube having a 4.5 mm ID and a 1.5 mm outer diameter (O.D.) PEEK tube inside, coiled and in Tyvek pouch
Wire biological indicators are inoculated with 10^6 Bacillus stearothemophilus spores (ATCC 7953), (Raven Lot 3W67583) and placed at the center point of the tube in each of these configurations. The coiled polyethylene tubes were then heat-sealed in a TYVEK sterilization pouch.
Separately, each of the lumen samples are tested. The stainless steel tube (triplicate samples: SS-1, SS-2, and SS-3), the polyethylene tube, and the polyethylene tube with the PEEK catheter were each placed in a resistometer and exposed to the following gas cycle for 5 minutes at 23° C. This gas cycle is defined as follows: […]
The sterilization chamber/resistometer is evacuated and held at vacuum for 2 minutes. NO gas is then added to the sterilization chamber until the vacuum is decreased by 1″Hg. This condition is maintained for 2 minutes. Are is then added until the chamber reaches atmospheric pressure and the condition is held for 5 minutes.

[2] = test system: Staphylococcus epidermides; test: Pressure vessel NO sterilization of dipped stainless steel strips; format: cell-based, Staphylococcus epidermides (strain 21977); settings: Five Minute Sterilization Cycle, NO gas at atmospheric pressure
Description: (§1) A glass pressure vessel is connected to a scrubbed NO gas tank source. The pressure vessel is purged five times with Argon gas to eliminate atmospheric oxygen (preventing formation of NO2•) and an additional three purges of NO are used to ensure a pure NO atmosphere and consistent results of bactericidal activity. To test the sterilization method: Bacillus subtillis var niger 9372 is used (after obtaining >80% endospore formation; a standard for ethylene oxide and autoclave test sterilization), as well as organisms commonly found on the epidermis: Staphylococcus aureus (strain 21769) and Staphylococcus epidermides (strain 21977), and the enteric organisms: Klebsiella pneumoniae (strain 21991) and Serratia marcesens (strain 21140). This particular Serratia strain has been found in previous studies to be one of the most resistant bacteria to the bactericidal effects of NO in culture. See, Raulli R et al., Recent Res Devel Microbiol 6: 177-183, 2002, the entire contents of which is incorporated by reference herein.
(§2) The organisms are cultured overnight in brain heart infusion BHI. […]
(§3) The sealed vessel is carefully opened in a laminar flow hood after all the NO had been purged with Argon. […] The samples are observed (digitally photographed) 24 hrs later, placed back in the waterbath and are measured for absorbance 72 hrs later. […]

[3] = test system: Staphylococcus aureus; test: as above; format: cell-based, Staphylococcus aureus (strain 21769); settings: Five Minute Sterilization Cycle, NO gas at atmospheric pressure
Description: as §1, §2, §3

[4] = test system: Bacillus subtilis (spore); test: Portable system (blood storage container, diazeniumdiolate plus acidic buffer) sterilization of stainless steel strips; format: cell-based, B. subtilis (endosporulated); settings: Fifteen Minute Sterilization Cycle; stainless steel strip
Description: (§4) Similar to Example 1, a portable system is devised using blood storage containers and other laboratory items. In this construct, a blood storage container (Nexell, Irvine, Calif.; Lifecell PL732 plastic tissue culture flask) serves as the sterilization chamber. It has multiple ports, is easily attached to tubing or other chambers, and is easily cut and heat sealed for insertion and removal of contaminated/sterilized samples. The heat seal is strong and holds well at pressure, even though 1 ATM of pressure is used experimentally. Two 60 ml syringes connected to each other and a line of tubing by a three-way stopcock are employed to mix acidic buffer in one syringe with NO-releasing diazeniumdiolate in the other syringe. The tubing is connected to the blood container/sterilization chamber.
(§5) The stopcock is turned so that the acidic buffer can be added to the syringe containing the diazeniumdiolate. The valve is immediately closed to the buffer syringe and opened to the sterilization chamber. The 300 cc sterilization chamber inflates in about 15 seconds. Experiments are performed as described above, except that the devised system is used instead of the pressure vessel.
(§6) The test organisms are cultured overnight in BHI. The cultures contained at least 10^8 CFU/ml (100-fold greater than FDA testing guidelines) based on standardized ABS595 curves for each organism. […]

[5] = test system: Serratia marcesens; test: Pressure vessel NO sterilization of dipped stainless steel strips; format: cell-based, Serratia marcesens (strain 21140); settings: Five Minute Sterilization Cycle, NO gas at atmospheric pressure
Description: as §1, §2, §3

[6] = test system: cocktail of bacteria; test: Humidity effects on live bacteria, sealed and unsealed dry samples; format: cell-based; settings: 15 min Sterilization cycle, 1 atmosphere
Description: This Example tests several humidifying paradigms and the ability to sterilize through a gas sterilization seal pouch. A cocktail of bacteria is used, grown to about 10^8 CFU/ml and mixed in equal volume. Stainless steel strips are dipped, allowed to dry, and subject to one of three methods: A, B and C. Method A samples are wrapped in a moist Kimwipe. Method B samples are left dry. Method C samples are dried and sealed in a V. Mueller™ Dual Peel Seal Pouch, which is designed for gas and autoclave sterilizations. Samples from methods B and C are placed in the sterilization chamber with a moist Kimwipe. Placement in the chamber is done so as to insure maximal separation of the Kimwipe and the sample(s). The chamber is re-sealed carefully so as not to disturb the positioning of the samples relative to the Kimwipe. Each sample is exposed to a 15 minute sterilization cycle at 1 atmosphere, removed under sterile conditions, and the samples are placed in BHI media as described above. Experimental samples are exposed to NO gas while control samples are handled identically, except that the chamber is gassed with nitrogen. All controls reached greater than 10^6 total CFU/ml in 24 hrs as determined by ABS595 standardization curves.

[7] = test system: bacillus stearothemophilus spores; test: Spore studies in NO and NO2 (BI disks in TYVEK pouches, glass vessel); format: cell-based; settings: Exp Time 10 min
Description: The experiments are conducted in glass vessels in which gases can be metered in exact amounts. The tests were conducted using biological indicators made of stainless steel disks inoculated with 10^6 bacillus stearothemophilus spores. The BI disks are heat-sealed in individual TYVEK sterilization pouches and placed in a glass vessel. The vessel is filled with various mixtures of gases following specific protocols for the order and timing of gas introduction.
In one protocol, the glass vessel is evacuated to 3″ Hg absolute. Either NO or NO2, as the sterilant gas, is added in an amount that corresponds to a 5% concentration (by volume) when the vessel is completely filled with sterilant gas and diluent gas. After 5 minutes, either air or nitrogen was added to the vessel until atmospheric pressure is reached. The BI is exposed to the air or nitrogen for 10 minutes. Thereafter, the BIs, in their pouches, are removed from the vessel and taken to a microbiological hood. The biological indicators are removed from the pouches and placed in tubes with sterile tryptic soy broth, incubated at from about 55 to about 60° C., and monitored for growth.

[8] = test system: Bacillus subtilis; test: Pressure vessel NO sterilization of dipped stainless steel strips; format: cell-based, Bacillus subtillis var niger 9372; settings: Five Minute Sterilization Cycle, NO gas at atmospheric pressure
Description: as §1, §2, §3

[9] = test system: bacterial cocktail containing B. subtilis, S. marcesens, and S. epidermides; test: Sterilization of medical materials (tubing, needle); format: cell-based; settings: 15 min Sterilization Cycle
Description: In this Example, the sterilization of medically relevant materials, such as needles and plastic tubing, is tested. Teflon (⅛′ ID), polyethylene (1.77 mm ID), vinyl (0.5 mm ID) tubing and a 30 gauge disposable needle are dipped in a bacterial cocktail containing B. subtilis, S. marcesens, and S. epidermides at about 10^8 total CFU/ml The samples are placed in the sterilization chamber and sealed. In each case, the lumen (the inner open space or cavity within the tubing) of the tubing or the needle contained at least some visually confirmed inoculum. […] The controls for each material reached at least 10^6 total CFU/ml in 24 hrs as determined by ABS595 standardization curves.

[10] = test system: Staphylococcus epidermides; test: Portable system (blood storage container, diazeniumdiolate plus acidic buffer) sterilization of stainless steel strips; format: cell-based, S. epidermides; settings: Fifteen Minute Sterilization Cycle; stainless steel strip
Description: as §4, §5, §6

[11] = test system: sporulated B. subtilis var. niger; test: Sterilization of contaminated stainless steel strips with varying quantities of delivered NO; format: cell-based; settings: 5%, 2.5% and 1% NO, five minutes, culture in LB 48 hours then plating
Description: A blood storage container (Nexell, Irvine, Calif.; Lifecell PL732 plastic tissue culture flask) is used as the sterilization chamber. Strips of stainless steel are dipped in 10^6 CFU/ml sporulated B. subtilis var. niger (as determined by ABS595 standardization curves). The strips are allowed to air dry, placed in the sterilization chamber, and then the sterilization chamber is heat sealed. The sterilization chamber is evacuated using a syringe and controlling air flow with the sterilization chamber valves. A known quantity of air is added to the vessel using a graduated syringe.
An NO-generating donor compound is placed in a 7 cc gas generation chamber. The gas generation chamber is attached to the storage container through luer lock connectors. The liquid activator, 3.0N HCl is added to the gas generation chamber and the generated gas is allowed to flow into the sterilization chamber. After a brief generation period, the gas is sealed in the sterilization chamber using a compression valve.
Varying quantities of NO gas, namely 10%, 5%, 2.5% and 1% NO, are tested for their efficacy in the sterilization chamber. The quantity (%) of NO gas generated and added to the sterilization chamber is calculated from the number of moles of NO required to be generated to result in the desired percentage of NO. […]

[12] = test system: Bacillus subtilis; test: Portable system (blood storage container, diazeniumdiolate plus acidic buffer) sterilization of stainless steel strips; format: cell-based, B. subtilis (vegetative); settings: Fifteen Minute Sterilization Cycle; stainless steel strip
Description: as §4, §5, §6

[13] = test system: Serratia marcesens; test: as above; format: cell-based, S. marcesens; settings: Fifteen Minute Sterilization Cycle; stainless steel strip
Description: as §4, §5, §6

[14] = test system: Klebsiella pneumoniae; test: Pressure vessel NO sterilization of dipped stainless steel strips; format: cell-based, Klebsiella pneumoniae (strain 21991); settings: Five Minute Sterilization Cycle, NO gas at atmospheric pressure
Description: as §1, §2, §3

[15] = test system: spores (Biological Indicator manufactured by Raven); test: Humidity effects on spores (Raven Biological Indicator in Tyvek sachets, 300 ml glass vessels); format: cell-based; settings: 5% nitrogen oxide, Diluent Air
Description: This Example illustrates the effects of humidity on the sterilization of spores using both NO and NO2/N2O4 as sterilizing gases. Tests are conducted in 300 ml glass vessels.
The vessels are allowed to stand for 30 minutes, Two Tyvek sachets, each containing a Biological Indicator manufactured by Raven (product number 3367771 3-6100ST) are placed in each vessel. The vessels are purged as follows: The vessel is evacuated to 8″Hg absolute. The Vessel is re-filled with air to atmospheric pressure. Evacuation/filling is repeated two more times. The vessel is evacuated to 8″Hg absolute. Sterilizing gases are introduced into the vessel. Compressed air (9% Relative Humidity) is added until the vessel reaches atmospheric pressure. The sachets are allowed to remain in the sterilizing environments for either five or ten 10 minutes before being removed and the BI is cultured in 4 milliliters of Tryptic Soy Broth for 14 days at 55-60° C.

[N]=O [NO, nitric oxide]
spore condition (Dead/Live) after 14 days of incubation ([1]; (a) SS-1, 17″ stainless tube 2.5 mm I.D.): Dead | spore condition (Dead/Live) after 14 days of incubation ([1]; (a) SS-2, 17″ stainless tube 2.5 mm I.D.): Dead | spore condition (Dead/Live) after 14 days of incubation ([1]; (a) SS-3, 17″ stainless tube 2.5 mm I.D.): Dead | spore condition (Dead/Live) after 14 days of incubation ([1]; (b) PE Sheath, 60″ polyethylene tube 4.5 mm ID in Tyvek pouch): Dead | spore condition (Dead/Live) after 14 days of incubation ([1]; (c) PE Sheath with Catheter (PEEK tube inside) in Tyvek pouch): Dead | trials showing no bacterial growth (Killed) [2]: 3/3 Killed | trials showing no bacterial growth (Killed) [3]: 3/3 Killed | trials Killed [4]: 2/2 | trials showing no bacterial growth (Killed) [5]: 3/3 Killed | trials Killed ([6]; Method A, sample wrapped in Moist Kimwipe): Killed | trials Killed ([6]; Method B, Dry sample): sterilized dry samples; also recorded: Killed | trials Killed ([6]; Method C, Dry, Sealed in Dual Peel Seal Pouch): Killed | spore condition (Dead/Live) ([7]; 5% in Air with Humidity Chip): Dead | trials showing no bacterial growth (Killed) [8]: 3/3 Killed | trials Killed ([9]; Disposable Needle 30 gauge): 2/2 Killed | trials Killed ([9]; Polyethylene Tubing 1.77 mm ID): 2/2 Killed | trials Killed ([9]; Teflon Tubing 1/8′ ID): 2/2 Killed | trials Killed ([9]; Vinyl Tubing 0.5 mm ID): 2/2 Killed | trials Killed [10]: 3/3 Killed | killing 10^6 CFU/ml sporulated B. subtilis var. niger [11]: effective at killing | trials Killed [12]: 2/2 | trials Killed [13]: 3/3 Killed | trials showing no bacterial growth (Killed) [14]: 3/3 Killed | Spore Condition in 14 Days ([15]; Exposure 5 Minutes, Dry): Alive | Spore Condition in 14 Days ([15]; Exposure 5 Minutes, Humid): Dead | Spore Condition in 14 Days ([15]; Exposure 10 Minutes, Dry): Alive | Spore Condition in 14 Days ([15]; Exposure 10 Minutes, Humid): Dead

[O]N=O [NO2, nitrogen dioxide]
spore condition (Dead/Live) ([7]; 5% in Air with Humidity Chip): Dead | spore condition (Dead/Live) ([7]; 5% in N2 with Humidity Chip): Dead
